Consider 21 compounds from patent publication US12077483B2, “Modified amine lipids” (Intellia Therapeutics, Inc., priority 2018, dated 2024).

The nature of data set [1]: pKa of amine lipid by TNS fluorescence. The class given is physicochemical. The settings on record: probe TNS (6-(p-toluidino)-2-naphthalenesulfonic acid sodium salt), unformulated amine lipid in ethanol, sodium phosphate buffers -9.0. As for the experimental part:
The pKa of each amine lipid was determined according to the method in Jayaraman, et al. (Angewandte Chemie, 2012) with the following adaptations. The pKa was determined for unformulated amine lipid in ethanol. Lipid stock solutions (2.94 mM) were diluted into Sodium Phosphate Buffers (0.1 M, Boston Bioproducts) of different pH (pH-range: 4.5-9.0) yielding a final lipid concentration of approx. 100 μM. The test samples were supplemented with TNS {6-(p-Toluidino)-2-naphthalenesulfonic acid sodium salt}, incubated and the fluorescence intensity was measured using excitation and emission wavelengths of 321 nm and 448 nm, respectively. The recorded data were normalized and the respective pKa values were derived from sigmoidal fitting.

In another data set the test system is mouse TTR. The data set can be described thus: Serum TTR ELISA in mice after LNP delivery. The class given is in vivo. The settings on record: mouse serum, relative to TSS control of same experiment. As for the experimental part:
For studies measuring in vivo editing in liver, CD-1 female mice were dosed at 0.1 mpk unless otherwise noted. Animals were euthanized at 6 or 7 days by exsanguinationvia cardiac puncture under isoflourane anesthesia. Liver tissue was collected from each animal for DNA extraction and analysis. Blood was collected into serum separator tubes or into tubes containing buffered sodium citrate for plasma as described herein. Cohorts of mice were measured for editing by Next-Generation Sequencing (NGS).
Blood was collected and the serum was isolated as indicated. The total mouse TTR serum levels were determined using a Mouse Prealbumin (Transthyretin) ELISA Kit (Aviva Systems Biology, Cat. OKIA00111). Briefly, sera were serial diluted with kit sample diluent, e.g. to a final dilution of 10,000-fold and/or 2,500-fold. The diluted sample was then added to the ELISA plates and the assay was then carried out according to directions. Serum TTR data from treatment groups are expressed as a percentage of vehicle control levels.
In general terms: In an ELISA, binding on a coated surface is turned into a signal by an enzyme label.

Structures are written as SMILES.

As to `CCCCCCCCCCOC(=O)CCCCCCCC(=O)OCC(COC(=O)CCCCCCCC(=O)OCCCCCCCCCC)OC(=O)CC(CCCCCCCC)OC(=O)NCCN(C)CC` (centres unmarked) [Compound 56, 9,9′-didecyl O′1,O1-(2-((3-(((2-(ethyl(methyl)amino)ethyl)carbamoyl)oxy)undecanoyl)oxy)propane-1,3-diyl) di(nonanedioate)], the pKa (in general, the pH at which an ionisable group is half protonated) in data set [1] stood at 6.28. Further, the “Serum TTR % TSS” value with mouse TTR (dose 0.1 mpk) was found to be 69.70 % TSS. Take `CCCCC/C=C\C/C=C\CCCCCCCC(=O)OCC(COC(=O)CCCCCCC/C=C\C/C=C\CCCCC)OC(=O)CCC(CCCCC(C)C)OC(=O)NCCN(C)CC` (centres unmarked) [Compound 80, 2-((4-(((2-(ethyl(methyl)amino)ethyl)carbamoyl)oxy)-9-methyldecanoyl)oxy)propane-1,3-diyl (9Z,9′Z,12Z,12′Z)-bis(octadeca-9,12-dienoate)]: the pKa in data set [1] is 6.41.

Regarding `CCCCC/C=C\C/C=C\CCCCCCCC(=O)OCC(COC(=O)CCCCCCC/C=C\C/C=C\CCCCC)OC(=O)CCC(CCCCCC)OC(=O)OCCCN1CCC1` (centres unmarked) [Compound 101, 2-((4-(((3-(azetidin-1-yl)propoxy)carbonyl)oxy)decanoyl)oxy)propane-1,3-diyl (9Z,9′Z,12Z,12′Z)-bis(octadeca-9,12-dienoate)], in data set [1], the pKa came to 6.75.

Turning to `CCCCC/C=C\C/C=C\CCCCCCCC(=O)OCC(COC(=O)CCCCCCC/C=C\C/C=C\CCCCC)COC(=O)C(C)(C)C(CCCCCCCC)OC(=O)NCCN(C)CC` (centres unmarked) [Compound 99, 2-(4,4,11-trimethyl-5-octyl-3,7-dioxo-2,6-dioxa-8,11-diazatridecyl)propane-1,3-diyl (9Z,9′Z,12Z,12′Z)-bis(octadeca-9,12-dienoate)], the pKa in data set [1] came out at 5.96. For the same compound, the “Serum TTR % TSS” value with mouse TTR (dose 0.03 mpk) was determined as 92.42 % TSS; with mouse TTR (dose 0.1 mpk) it was 42.87 % TSS.

Take `CCCCCCCC/C=C\CCCCCCCC(=O)OCC(COC(=O)CCCCCCC/C=C\CCCCCCCC)OC(=O)CCC(CCCC)OC(=O)NCCN1CCCC1` (centres unmarked) [Compound 110, 2-((4-(((2-(pyrrolidin-1-yl)ethyl)carbamoyl)oxy)octanoyl)oxy)propane-1,3-diyl dioleate]: in data set [1], the pKa came out at 7.01. On the same count and under the same terms, the value for `CCCCC/C=C\C/C=C\CCCCCCCC(=O)OCC(COC(=O)CCCCCCC/C=C\C/C=C\CCCCC)OC(=O)CCC(CCCCCCCCCCCC)OC(=O)OCCCN(CC)CC` (centres unmarked) [Compound 2, 2-((4-(((3-(diethylamino)propoxy)carbonyl)oxy)hexadecanoyl)oxy)propane-1,3-diyl (9Z,9′Z,12Z,12′Z)-bis(octadeca-9,12-dienoate)] was 5.28; that for `CCCCC/C=C\C/C=C\CCCCCCCC(=O)OCC(COC(=O)CCCCCCC/C=C\C/C=C\CCCCC)OC(=O)CCC(CCCCCCCC)OC(=O)N(C)CCN(C)CC` (centres unmarked) [Compound 37, 2-((4-(((2-(ethyl(methyl)amino)ethyl)(methyl)carbamoyl)oxy)dodecanoyl)oxy) propane-1,3-diyl (9Z,9′Z,12Z,12′Z)-bis(octadeca-9,12-dienoate)] was 5.36; that for `CCCCC/C=C\C/C=C\CCCCCCCC(=O)OCC(COC(=O)CCCCCCC/C=C\C/C=C\CCCCC)COC(=O)CCC(CCCC)OC(=O)NCCN1CCCC1` (centres unmarked) [Compound 112, 2-(((4-(((2-(pyrrolidin-1l-yl)ethyl)carbamoyl)oxy)octanoyl)oxy)methyl)propane-1,3-diyl (9Z,9′Z,12Z,12′Z)-bis(octadeca-9,12-dienoate)] was 7.02. On the same count and under the same terms, for `CCCCC/C=C\C/C=C\CCCCCCCC(=O)OCC(COC(=O)CCCCCCC/C=C\C/C=C\CCCCC)OC(=O)CCC(CCCCCC)OC(=O)OCCCN1CCCCC1` (centres unmarked) [Compound 102, 2-((4-(((3-(piperidin-1-yl)propoxy)carbonyl)oxy)decanoyl)oxy)propane-1,3-diyl (9Z,9′Z,12Z,12′Z)-bis(octadeca-9,12-dienoate)] the value was 5.16; for `CCCCC/C=C\C/C=C\CCCCCCCC(=O)OCC(COC(=O)CCCCCCC/C=C\C/C=C\CCCCC)OC(=O)CCC(CCCCCCCCCCCC)OC(=O)OC1CCN(C)CC1` (centres unmarked) [f47], 5.99; for `CCCCC/C=C\C/C=C\CCCCCCCC(=O)OCC(COC(=O)CCCCCCC/C=C\C/C=C\CCCCC)OC(=O)CCCOC(=O)NCCN(C)CC` [Compound 43, 2-((4-(((2-(ethyl(methyl)amino)ethyl)carbamoyl)oxy)butanoyl)oxy)propane-1,3-diyl (9Z,9′Z,12Z,12′Z)-bis(octadeca-9,12-dienoate)], 7.33. The same measure, in the same setting: for `CCCCC/C=C\C/C=C\CCCCCCCC(=O)OCC(COC(=O)CCCCCCC/C=C\C/C=C\CCCCC)OC(=O)CCC(CCCCCC(C)C)OC(=O)NCCN(C)CC` (centres unmarked) [Compound 81, 2-((4-(((2-(ethyl(methyl)amino)ethyl)carbamoyl)oxy)-10-methylundecanoyl)oxy)propane-1,3-diyl (9Z,9′Z,12Z,12′Z)-bis(octadeca-9,12-dienoate)] the value was 6.42. Consider `CCCCC/C=C\C/C=C\CCCCCCCC(=O)OCC(COC(=O)CCCCCCC/C=C\C/C=C\CCCCC)COC(=O)CCC(CCCCCCCC)OC(=O)NCCN(C)CC` (centres unmarked) [Compound 54, 2-(12-methyl-6-octyl-3,8-dioxo-2,7-dioxa-9,12-diazatetradecyl)propane-1,3-diyl (9Z,9′Z,12Z,12′Z)-bis(octadeca-9,12-dienoate)], for which, in data set [1], the pKa was found to be 6.25. The “Serum TTR % TSS” value in the data set with mouse TTR (dose 0.1 mpk) amounted to 18.32 % TSS. With `CCCCC/C=C\C/C=C\CCCCCCCC(=O)OCC(COC(=O)CCCCCCC/C=C\CCCCCCCC)OC(=O)CCC(CCCC)OC(=O)NCCN1CCCC1` (centres unmarked) [Compound 109, 3-(oleoyloxy)-2-((4-(((2-(pyrrolidin-1-yl)ethyl)carbamoyl)oxy)octanoyl)oxy)propyl (9Z,12Z)-octadeca-9,12-dienoate], the pKa in data set [1] is 6.91.

Consider `CCCCC/C=C\C/C=C\CCCCCCCC(=O)OCC(COC(=O)CCC(CCCC)OC(=O)NCCN1CCCC1)OC(=O)CCCCCCC/C=C\C/C=C\CCCCC` (centres unmarked) [Compound 111, 3-((4-(((2-(pyrrolidin-1-yl)ethyl)carbamoyl)oxy)octanoyl)oxy)propane-1,2-diyl (9Z,9′Z,12Z,12′Z)-bis(octadeca-9,12-dienoate)], for which the pKa in data set [1] came out at 7.02. Still for that read-out and setting: the value for `CCCCC/C=C\C/C=C\CCCCCCCC(=O)OCC(COC(=O)CCCCCCC/C=C\C/C=C\CCCCC)OC(=O)CCC(CCCCCCCCCCCC)OC(=O)NCCCN(CC)CC` (centres unmarked) [Compound 13, 2-((4-(((3-(diethylamino)propyl)carbamoyl)oxy)hexadecanoyl)oxy)propane-1,3-diyl (9Z,9′Z,12Z,12′Z)-bis(octadeca-9,12-dienoate)] was 7.2. On to `CCCCC/C=C\C/C=C\CCCCCCCC(=O)OCC(COC(=O)CCCCCCC/C=C\C/C=C\CCCCC)OC(=O)CCC(CCCCCCCCCCCC)OC(=O)OCCN(C)C` (centres unmarked) [Compound 4, 2-((4-(((2-(dimethylamino)ethoxy)carbonyl)oxy)hexadecanoyl)oxy)propane-1,3-diyl (9Z,9′Z,12Z,12′Z)-bis(octadeca-9,12-dienoate)], for which the pKa in data set [1] is below 5. The “Serum TTR % TSS” value with mouse TTR (dose 0.03 mpk) came out at 73.09 % TSS. For the compound `CCCCCCCCCCOC(=O)CCCCCCCC(=O)OCC(COC(=O)CCCCCCCC(=O)OCCCCCCCCCC)OC(=O)CCCC(CCCCCCCC)OC(=O)NCCN(C)CC` (centres unmarked) [Compound 58], the pKa in data set [1] was determined as 6.32.

Consider `CCCCC/C=C\C/C=C\CCCCCCCC(=O)OCC(COC(=O)CCCCCCC/C=C\C/C=C\CCCCC)OC(=O)CCC(CCCCC(C)C)OC(=O)NCCN1CCCC1` (centres unmarked) [Compound 82, 2-((9-methyl-4-(((2-(pyrrolidin-1-yl)ethyl)carbamoyl)oxy)decanoyl)oxy)propane-1,3-diyl (9Z,9′Z,12Z,12′Z)-bis(octadeca-9,12-dienoate)], for which the pKa in data set [1] was found to be 6.71.

Regarding `CCCCC/C=C\C/C=C\CCCCCCCC(=O)OCC(COC(=O)CCCCCCC/C=C\C/C=C\CCCCC)COC(=O)CC(CCCC)OC(=O)NCCN1CCCC1` (centres unmarked) [Compound 113, 2-(((3-(((2-(pyrrolidin-1-yl)ethyl)carbamoyl)oxy)heptanoyl)oxy)methyl)propane-1,3-diyl (9Z,9′Z,12Z,12′Z)-bis(octadeca-9,12-dienoate)], the pKa in data set [1] stood at 7.02. Still for that read-out and setting: for `CCCCC/C=C\C/C=C\CCCCCCCC(=O)OCC(COC(=O)CCCCCCC/C=C\C/C=C\CCCCC)OC(=O)CCC(CCCCCC(C)C)OC(=O)NCCN1CCCC1` (centres unmarked) [Compound 83, 2-((10-methyl-4-(((2-(pyrrolidin-1-yl)ethyl)carbamoyl)oxy)undecanoyl)oxy)propane-1,3-diyl (9Z,9′Z,12Z,12′Z)-bis(octadeca-9,12-dienoate)] the value was 6.61.
